The values below come from patent publication US10183014B2, “Ocular formulations for drug-delivery and protection of the anterior segment of the eye” (PanOptica, Inc., priority 2014, dated 2019).

Values joined by “and” are separate entries in the source; they are usually repeats but may differ in a detail not shown here. Equal entries are not always repeated. Where two headings read alike, the source gives them in different places.

Data set [1] is described as follows: Ocular pharmacokinetics of formulations, Example 20-4. The data set is classed as in vivo, Dutch Belted rabbits. The following applies: Dutch Belted, rabbit, topical, PSD 30 μm/XL, HPMC 0.08%, glycerol 2.5%, HEC 0.2%, VitK3 1 μM, pH ≈7.5, QD, Day 5, 1 hr post dose. How it is done: The study design (Table 18-1) consisted of forty-nine (49) Dutch Belted rabbits, each receiving a 30 μL bilateral topical ocular dose.
Ocular sampling occurred one hour following the first daily dose on Day 5 for all groups. Whole blood samples using K2EDTA as an anticoagulant were collected from all animals on Day 5, 1 hour post dose. The whole blood was placed on ice until samples were spun in a centrifuge to separate the plasma. Aqueous humor, conjunctiva, cornea, central retina, peripheral retina, central choroid, and peripheral choroid samples were collected following necropsy. Samples were then frozen at −70° C. or lower. For all Groups 1-16, plasma, central retina, central choroid, and cornea samples were assayed for PAN-90806.

Data set [2] can be described thus: Particle size distribution by laser diffraction light scattering. The data set is classed as physicochemical. The note with it: API form Freebase. On the procedure: Particle size distribution can be analyzed using laser diffraction light scattering, e.g., with a Horiba LA-950 V2. Generic assumptions are made in setting conditions and the refractive index value. The distributions are volume based. Sample density is adjusted to a generic range of percent transmission on the blue LED light source. A small sample cell (filled with water) can be used rather than the flow through cell, to minimize sample quantity.
Particle size distribution was analyzed using laser diffraction light scattering with a Horiba LA-950 V2. Generic assumptions were made in setting conditions and the refractive index value. The distributions were volume based. Sample density was adjusted to a generic range of percent transmission on the blue LED light source. A small sample cell (filled with water) was used rather than the flow through cell, to minimize sample quantity.

The next data set concerns the target T1, EGFR (Homo sapiens, UniProt P00533).
T1 construct: endogenous in cells; host or cells: hTCEpi (immortalized corneal epithelial cells)
The experiment in a line: EGFR tyrosine phosphorylation assay in hTCEpi cells with a second active agent. The data set is classed as cell-based. The note with it: vitamin K 50 μM, nicotinic acid 10 μM or nicotinamide 10 μM, 4 hours pre-treatment; EGF 50 ng/ml. How it is done: An EGFR tyrosine assay in corneal epithelial cells is run to determine if Vitamin K or nicotinic acid/nicotinamide can overcome inhibition of EGFR and if there is an increase in EGFR activity. […] Cells are harvested cells and immunoblotted for determination of phosphorylated EGFR (tyrosine 1068 and tyrosine 1045) and total EGFR concentration which was used to determine receptor activity (IC50).
The cells were then incubated with EGF (50 ng/ml) for 15 minutes. Cells were harvested and cell lysates were immunoblotted for determination of phosphorylated EGFR (tyrosine 1068 and tyrosine 1045) and total EGFR concentration.

Where [3] appears, read: excipient PVP K-29/32, roller speed high, media size 0.8 mm, particles under storage 1 day, RT.
[4] abbreviates: excipient PVP K-29/32, roller speed high, media size 0.8 mm, particles under storage 15 days, RT.
The mark [5] stands for this setting: excipient Pluronic F-127, milling not given, particles under storage 6 days, 40° C.
The mark [6] stands for this setting: excipient Pluronic F-127, roller speed high, media size 0.8 mm, particles under storage 3 days, RT.
The mark [7] stands for this setting: excipient Pluronic F-127, roller speed low, media size 3 mm.
[8] abbreviates: excipient Tween 80, milling not given.
[9] abbreviates: excipient Tween 80, roller speed high, media size 0.8 mm, particles under storage 28 days, RT.

T1 sequence (P00533 25-1210): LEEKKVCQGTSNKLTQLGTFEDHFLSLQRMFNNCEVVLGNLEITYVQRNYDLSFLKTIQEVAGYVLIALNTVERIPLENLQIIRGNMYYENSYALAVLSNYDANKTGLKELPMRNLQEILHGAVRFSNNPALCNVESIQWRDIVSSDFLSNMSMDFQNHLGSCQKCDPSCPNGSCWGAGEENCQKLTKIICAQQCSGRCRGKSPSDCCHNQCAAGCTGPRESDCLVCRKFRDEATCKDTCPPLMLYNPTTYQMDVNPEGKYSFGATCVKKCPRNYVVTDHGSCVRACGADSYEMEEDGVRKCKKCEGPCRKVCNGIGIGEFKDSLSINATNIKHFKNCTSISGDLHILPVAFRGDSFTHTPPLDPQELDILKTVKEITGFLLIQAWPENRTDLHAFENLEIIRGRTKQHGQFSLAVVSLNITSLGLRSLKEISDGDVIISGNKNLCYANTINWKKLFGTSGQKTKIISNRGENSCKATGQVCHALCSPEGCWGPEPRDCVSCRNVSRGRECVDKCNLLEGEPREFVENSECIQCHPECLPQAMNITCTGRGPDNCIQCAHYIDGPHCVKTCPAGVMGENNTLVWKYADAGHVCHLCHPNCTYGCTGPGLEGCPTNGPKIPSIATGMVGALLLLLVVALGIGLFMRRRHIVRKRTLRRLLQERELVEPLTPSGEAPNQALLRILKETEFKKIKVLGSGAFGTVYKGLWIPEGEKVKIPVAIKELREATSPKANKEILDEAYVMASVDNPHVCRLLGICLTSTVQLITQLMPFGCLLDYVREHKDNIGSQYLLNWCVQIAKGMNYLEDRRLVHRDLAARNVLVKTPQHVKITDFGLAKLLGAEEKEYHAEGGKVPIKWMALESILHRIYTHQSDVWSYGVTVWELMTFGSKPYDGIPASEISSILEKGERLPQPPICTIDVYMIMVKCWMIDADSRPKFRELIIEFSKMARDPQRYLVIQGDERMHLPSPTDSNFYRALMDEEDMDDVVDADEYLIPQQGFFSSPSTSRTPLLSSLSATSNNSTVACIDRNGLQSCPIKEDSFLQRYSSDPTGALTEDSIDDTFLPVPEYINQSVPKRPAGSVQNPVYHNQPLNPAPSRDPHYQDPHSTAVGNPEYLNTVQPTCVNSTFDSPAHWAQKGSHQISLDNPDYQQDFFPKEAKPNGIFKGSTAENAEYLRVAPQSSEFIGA

In the case of `NC(=O)c1c(OCc2c(F)cc(Br)cc2F)nsc1NC(=O)NCCCCN1CCCC1` [Formula II], the concentration at 1 h stood at 203 nM in data set [1] (central choroid, 4 mg/mL (30 μL per eye, bilateral), Group 4: 4 mg/mL FB suspension, read-out: Central Choroid concentration); 203 nM in data set [1] (central choroid, Group 5: 6 mg/mL FB suspension, read-out: Central Choroid concentration); 38.4 nM in data set [1] (central retina, 4 mg/mL (30 μL per eye, bilateral), Group 4: 4 mg/mL FB suspension, read-out: Central Retina concentration); 47.9 nM in data set [1] (central retina, Group 5: 6 mg/mL FB suspension, read-out: Central Retina concentration); 21300 nM in data set [1] (cornea, 4 mg/mL (30 μL per eye, bilateral), Group 4: 4 mg/mL FB suspension, read-out: Cornea concentration); 23800 nM in data set [1] (cornea, Group 5: 6 mg/mL FB suspension, read-out: Cornea concentration). Also, the concentration at 1 h in data set [1] (plasma, 4 mg/mL (30 μL per eye, bilateral), Group 4: 4 mg/mL FB suspension, read-out: Plasma concentration) turned out to be 3.27 nM; in data set [1] (plasma, Group 5: 6 mg/mL FB suspension, read-out: Plasma concentration), 3.91 nM. The “PSD (Particle Size Distribution) Mean” value is about 210 nm in data set [2] (setting [3]); about 170 nm in data set [2] (setting [4]); about 3100 nm in data set [2] (setting [5]); about 130 nm in data set [2] (setting [6]); ~8100 nm and ~4700 nm in data set [2] (setting [7]); about 2000 nm in data set [2] (setting [8]). For the same compound, the “PSD (Particle Size Distribution) Mean” value in data set [2] (setting [9]) is listed as about 370 nm. The “PSD (Particle Size Distribution) Median” value in data set [2] (setting [3]) was about 150 nm; in data set [2] (setting [4]) it was about 130 nm; in data set [2] (setting [5]), about 2500 nm; in data set [2] (setting [6]), about 120 nm; in data set [2] (setting [7]), ~6200 nm and ~4400 nm; in data set [2] (setting [8]), about 300 nm. In addition, the “PSD (Particle Size Distribution) Median” value is about 160 nm in data set [2] (setting [9]); ~5500 nm and ~3900 nm and ~3700 nm and ~3500 nm in data set [2] (excipient Tween 80, roller speed low, media size 3 mm).
Consider `NC(=O)c1cccnc1` [nicotinamide], for which the “Effect on Formula I or II compound-mediated EGFR inhibition” value on EGFR is recorded as “overcome”.
Same read-out and setting: in the case of `O=C(O)c1cccnc1` [nicotinic acid] it was “overcome”.
